Results on two molecules are retold here after publication PMC4394048 (Molecular cancer therapeutics, 2015).

The conditions of data set [1]: Mdr1a/1b−/− mice, intravenous administration; cited from earlier work.
Data set [2] deals with T1, OATP1B3 (Homo sapiens, UniProt Q9NPD5). The data set is described as follows: in vitro.
Another data set concerns OATP1B3/MDR1. To be noted: MDCKII-OATP1B3/MDR1 versus MDCKII-OATP1B3 cells, p < 0.01.
The target in a further data set is MDR1 (Homo sapiens, UniProt P08183). To be noted: MDCKII-MDR1 versus MDCKII-Co cells over time; 0.1 μM; p < 0.05.
Sequence of MDR1 (P08183 whole entry): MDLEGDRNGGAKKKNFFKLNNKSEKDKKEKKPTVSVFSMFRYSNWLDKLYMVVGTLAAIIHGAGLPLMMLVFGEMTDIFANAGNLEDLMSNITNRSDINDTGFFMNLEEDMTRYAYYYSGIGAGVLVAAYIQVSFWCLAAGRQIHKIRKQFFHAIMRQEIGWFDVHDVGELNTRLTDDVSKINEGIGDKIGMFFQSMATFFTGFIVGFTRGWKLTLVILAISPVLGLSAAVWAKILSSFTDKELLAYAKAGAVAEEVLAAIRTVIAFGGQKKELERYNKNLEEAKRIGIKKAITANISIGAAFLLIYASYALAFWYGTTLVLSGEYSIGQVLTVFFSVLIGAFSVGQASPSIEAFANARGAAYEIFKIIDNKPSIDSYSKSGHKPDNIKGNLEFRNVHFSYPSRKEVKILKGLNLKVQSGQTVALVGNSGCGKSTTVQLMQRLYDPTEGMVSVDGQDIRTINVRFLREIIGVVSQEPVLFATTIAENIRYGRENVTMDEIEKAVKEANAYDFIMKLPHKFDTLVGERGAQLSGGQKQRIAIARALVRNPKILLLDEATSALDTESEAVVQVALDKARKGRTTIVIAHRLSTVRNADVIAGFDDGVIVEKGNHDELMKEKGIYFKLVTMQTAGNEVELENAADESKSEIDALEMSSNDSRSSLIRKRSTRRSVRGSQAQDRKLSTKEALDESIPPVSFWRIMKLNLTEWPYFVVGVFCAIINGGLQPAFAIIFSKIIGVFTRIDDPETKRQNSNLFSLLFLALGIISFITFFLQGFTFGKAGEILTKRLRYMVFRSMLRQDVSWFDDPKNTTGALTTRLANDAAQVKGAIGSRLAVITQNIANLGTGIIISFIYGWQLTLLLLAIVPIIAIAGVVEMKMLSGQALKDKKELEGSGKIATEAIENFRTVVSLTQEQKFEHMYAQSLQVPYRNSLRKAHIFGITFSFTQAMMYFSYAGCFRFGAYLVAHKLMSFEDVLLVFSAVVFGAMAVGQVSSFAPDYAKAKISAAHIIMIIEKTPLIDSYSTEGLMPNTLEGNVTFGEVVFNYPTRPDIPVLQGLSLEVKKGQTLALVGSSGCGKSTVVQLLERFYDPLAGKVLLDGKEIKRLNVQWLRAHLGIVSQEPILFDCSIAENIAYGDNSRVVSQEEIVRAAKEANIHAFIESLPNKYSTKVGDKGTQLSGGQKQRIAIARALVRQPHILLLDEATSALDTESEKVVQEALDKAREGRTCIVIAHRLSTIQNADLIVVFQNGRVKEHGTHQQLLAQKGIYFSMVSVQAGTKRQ
Data set [3] can be described thus: Docetaxel distribution in Slco1b2−/− and wild-type mice. The conditions noted are these: for mean plasma clearance ± S.D.: dose/AUC.
For data set [4] the following is noted: cited from earlier work.
Data set [5] concerns the target T1, OATP1B3.
A further data set has as its system OATP1B1/MDR1. To be noted: MDCKII-OATP1B1/MDR1 versus MDCKII-OATP1B1 cells, p < 0.001.
Substrate in data set [6]: CC(=O)O[C@@]12CO[C@@H]1C[C@H](O)[C@@]1(C)C(=O)[C@H](O)C3=C(C)[C@@H](OC(=O)[C@H](O)[C@@H](NC(=O)OC(C)(C)C)c4ccccc4)C[C@@](O)([C@@H](OC(=O)c4ccccc4)[C@H]21)C3(C)C
Kind of data set: cells, lysate or membranes named. The conditions noted are these: other: HeLa cells; 0.1-100 μM; Michaelis-Menten fit; 37.0 °C.

T1 sequence (Q9NPD5 whole entry): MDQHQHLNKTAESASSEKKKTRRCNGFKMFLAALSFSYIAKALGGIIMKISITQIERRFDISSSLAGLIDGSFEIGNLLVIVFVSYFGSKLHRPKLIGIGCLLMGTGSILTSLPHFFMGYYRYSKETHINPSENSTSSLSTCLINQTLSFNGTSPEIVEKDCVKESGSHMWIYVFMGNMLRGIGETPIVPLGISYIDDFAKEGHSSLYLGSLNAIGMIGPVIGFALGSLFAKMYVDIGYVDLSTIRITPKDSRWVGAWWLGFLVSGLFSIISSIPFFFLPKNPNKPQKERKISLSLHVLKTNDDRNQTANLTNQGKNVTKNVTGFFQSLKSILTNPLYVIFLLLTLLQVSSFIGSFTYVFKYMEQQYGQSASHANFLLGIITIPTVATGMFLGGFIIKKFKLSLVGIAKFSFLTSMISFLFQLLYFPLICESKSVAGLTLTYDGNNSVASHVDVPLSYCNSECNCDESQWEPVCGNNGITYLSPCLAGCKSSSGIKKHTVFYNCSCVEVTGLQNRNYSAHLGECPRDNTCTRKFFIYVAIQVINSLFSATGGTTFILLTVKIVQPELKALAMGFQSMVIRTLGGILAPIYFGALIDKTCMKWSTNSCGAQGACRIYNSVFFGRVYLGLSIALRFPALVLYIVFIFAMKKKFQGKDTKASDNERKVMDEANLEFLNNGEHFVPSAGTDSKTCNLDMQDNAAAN

What is called Km is the substrate concentration at which the rate is half of its maximum. Usually Vmax stands for the top rate of the reaction or transport when substrate is in excess. Consider `CC(=O)O[C@@]12CO[C@@H]1C[C@H](O)[C@@]1(C)C(=O)[C@H](O)C3=C(C)[C@@H](OC(=O)[C@H](O)[C@@H](NC(=O)OC(C)(C)C)c4ccccc4)C[C@@](O)([C@@H](OC(=O)c4ccccc4)[C@H]21)C3(C)C` [docetaxel], for which, in data set [1], the “AUC of docetaxel in knockout versus wild-type mice” value is “similar”. Further, the Km on OATP1B3 [2] came to 14 ± 6.5 µM. Also, the “docetaxel transported into the apical compartment” value is “significantly higher” in the data set with OATP1B3/MDR1 (0.5h up to 3h, 0.1 μM) and “significantly higher” with OATP1B1/MDR1 (0.5h up to 3h, 0.1 μM). Moreover, the intracellular docetaxel entry in the data set with OATP1B3/MDR1 (all time points) and in the data set with OATP1B1/MDR1 (all time points) was “significantly lower” each time. Also, at MDR1, the “apical docetaxel accumulation (basal-to-apical)” value is reported as “significantly higher”. The “plasma clearance in Slco1b2−/− mice, lower than wild-type mice” value in data set [3] (1 mg/kg intravenous, p < 0.05) amounted to 83%. Moreover, the “mean plasma clearance ± S.D.” value in [3] (Slco1b2−/− mice, 1 mg/kg intravenous) is 1.22 ± 0.583 mL/min/kg; in data set [3] (wild-type mice, 1 mg/kg intravenous) it was 473 ± 124 mL/h. The docetaxel liver concentrations result in data set [3] (Slco1b2−/− versus wild-type mice, 30 min after 1 mg/kg intravenous) is on record as “no significant difference”. Further, in data set [4] (CYP3A4*1B and CYP3A5*1A alleles (CYP3A4/5*2 haplotype)), the “increase in docetaxel clearance” value is 64%. In data set [4] (humans), the “docetaxel excreted in bile” value is recorded as ~ 75%. In addition, the “docetaxel excreted in urine” value in data set [4] (humans) is ~ 5%. The “difference in drug clearance amongst patients” value in [4] (patients receiving the same treatment regimens) is on record as “up to 10 fold”. The “increase in odds of developing grade 4 neutropenia” value in [4] (with a 50% decrease in docetaxel clearance) was “more than 4 fold”. For the same molecule, the Vmax on OATP1B3 [5] is reported as 480 ± 90 pmol/mg/min.

B1: Oatp1b2 (Rattus norvegicus) (protein)
chain: MDHTQQSRKAAEAQPSRSKQTRFCDGFKLFLAALSFSYICKALGGVVMKSSITQIERRFDIPSSISGLIDGGFEIGNLLVIVFVSYFGSKLHRPKLIGIGCFIMGIGSILTALPHFFMGYYKYAKENDIGSLGNSTLTCFINQMTSPTGPSPEIVEKGCEKGLKSHMWIYVLMGNMLRGIGETPIVPLGISYLDDFAKEGHTSMHLGTLHTIAMIGPILGFIMSSVFAKIYVDVGYVDLNSVRITPNDARWVGAWWLSFIVNGLLCITSSIPFFFLPKIPKRSQEERKNSVSLHAPKTDEEKKHMTNLTKQEEQDPSNMTGFLRSLRSILTNEIYVIFLILTLLQVSGFIGSFTYLFKFIEQQFGRTASQANFLLGIITIPTMATAMFLGGYIVKKFKLTSVGIAKFVFFTSSVAYAFQFLYFPLLCENKPFAGLTLTYDGMNPVDSHIDVPLSYCNSDCSCDKNQWEPICGENGVTYISPCLAGCKSFRGDKKPNNTEFYDCSCISNSGNNSAHLGECPRYKCKTNYYFYIILQVTVSFFTAMGSPSLILILMKSVQPELKSLAMGFHSLIIRALGGILAPIYYGAFIDRTCIKWSVTSCGKRGACRLYNSRLFGFSYLGLNLALKTPPLFLYVVLIYFTKRKYKRNDNKTLENGRQFTDEGNPDSVNKNGYYCVPYDEQSNETPL
Take B1: in data set [6], the Km turned out to be 20.8 ± 7.4 µM and the Vmax was determined as 1548 ± 186 pmol/mg/min.
